Test results taken from patent US20160304957A1, “TREATMENT AND MODULATION OF GENE EXPRESSION AND SKIN AGING” (DSM NUTRITIONAL PRODUCTS LTD., priority 2006, published 2016).

What was measured:
Assay in all cases: QRT-PCR gene expression in HaCaT cells with or without UVA
Type in all cases: cell-based, human
RXRγ = system: RXRγ
Method: (§1) HaCaT cells were obtained from Prof. Fusenig, German Cancer Research Centre, Heidelberg. […] The accuracy of cell counting was approximately 99%.
(§2) On day 3 of the experiment, cells were washed six times with Ca/Mg-free PBS containing 2% BSA, and then irradiated with light with a Hönle sun lamp Sol 500 (Dr. Hönle, Plannegg, Germany) at a dose of 270 kJ/m^2 in Ca/Mg-free PBS (2 hour exposure time at […]). The experimental schedule was chosen because the cells had optimal UVA sensitivity after 48 hours in culture. […] Confluent cultures were much less sensitive to irradiation.
(§3) After irradiation, the cells were supplied with fresh β-carotene-containing serum-free medium and kept in the incubator at 37° C., 5% CO2 until harvest of the samples. In experiments in which the half-life of ^1O2 was prolonged by D2O to enhance its effect, PBS was prepared in D2O, instead of in H2O, as it was done for the standard conditions described above. Cells were washed twice in D2O-PBS prior to irradiation in D2O-PBS. After irradiation, cells were maintained with fresh β-carotene-containing serum-free medium. Sham controls were treated in an identical manner, by placing them under the solar simulator but shielded from light.
(§4) Total RNA was isolated by using Trizol™ (Invitrogen, Basel, Switzerland) according to the instructions of the manufacturer. Random-primed cDNA was synthesized using the Superscript pre-amplification system for first strand cDNA synthesis (Invitrogen).
(§5) cDNA corresponding to 10 ng total RNA was used as template to quantify the relative RNA expression of the genes of interest by TaqMan® real time PCR.
(§6) The PCR analyses were carried out in triplicate and in a multiplex setup, using 18S rRNA as a calibrator gene. The rRNA primers were used at a final concentration of 50 nM, the probe at 100 nM. For quantification of the genes of interest, the primer concentrations were optimized for sensitivity of template detection. […] PCR reactions were carried out for 40 cycles of 95° C. for 15 seconds and 60° C. for 1 minute in an ABI7700 (Applied Biosystems, Rotkreuz, Switzerland). Regulation of gene expression was calculated as described in user bulletin #2 provided by the manufacturer. A threshold cycle (“CT”) is the first PCR cycle in which an amplification signal is detected. Expression levels are given as δCT values. The δCT value describes the level of gene expression as the average PCR cycle, in which the gene of interest was detected first (CT value), subtracted by the CT value of the calibrator gene 18S rRNA (CTgene of interest−CTcalibrating gene), 18S rRNA served as a measure for the amount of template in the reaction. Routinely, 18S rRNA was detected between PCR cycle 12 and 13 (SE=standard error) A low δCT corresponds to a high mRNA level.
(§7) HaCaT cells were pretreated for 2 days with 0.5, 1.5 or 3 μM β-carotene. The cells were irradiated with UVA (270 kJ/m^2) either in D2O-containing PBS or in H2O-containing PBS, to analyze ^1O2 inducibility of genes. Gene expression 5 hours after UVA irradiation was analyzed by QRT-PCR. Values are geometric means±standard error from three independent experiments. Upregulations greater than 1.5-fold are labelled in bold black, downregulations below 0.66-fold are bold grey.

[1] = system: β-carotene-9′,10′-oxygenase
Method: as §1, §2, §3, §4, §5, §6, §7

RXRα = system: RXRα
Method: as §1, §2, §3, §4, §5, §6, §7

RARβ = system: RARβ
Method: as §1, §2, §3, §4, §5, §6, §7

RXRβ = system: RXRβ
Method: as §1, §2, §3, §4, §5, §6, §7

[2] = system: β-Carotene-15,15′-oxygenase
Method: as §1, §2, §3, §4, §5, §6, §7

[3] = β-carotene, UVA, D2O treatments

For `CC1=C(/C=C/C(C)=C/C=C/C(C)=C/C=C/C=C(C)/C=C/C=C(C)/C=C/C2=C(C)CCCC2(C)C)C(C)(C)CCC1` [β-carotene, All-E-β-carotene], which “basal or UVA-regulated expression level of RXRγ” value (RXRγ) is on record?
The value was “no significant effect”.

And the RXRγ fold induction (RXRγ; D2O, UVA/βC 0.5 μM)?
The RXRγ fold induction was 1.72 fold.

And the RXRγ fold induction (RXRγ; D2O, UVA/βC 1.5 μM)?
Its RXRγ fold induction is 2.70 fold.

And the RXRγ fold induction (RXRγ; D2O, UVA/βC 3 μM)?
Its RXRγ fold induction is 1.57 fold.

And the RXRγ fold induction (RXRγ; D2O, βC 0.5 μM)?
The RXRγ fold induction was 1.47 fold.

What about the RXRγ fold induction (RXRγ; D2O, βC 1.5 μM) of the same molecule?
Its RXRγ fold induction is 2.78 fold.

And the RXRγ fold induction (RXRγ; D2O, βC 3 μM)?
Its RXRγ fold induction is 2.57 fold.

And the RXRγ fold induction (RXRγ; H2O, UVA/βC 0.5 μM)?
The RXRγ fold induction was 0.61 fold.

And the RXRγ fold induction (RXRγ; H2O, UVA/βC 1.5 μM)?
Its RXRγ fold induction is 0.08 fold.

And the RXRγ fold induction (RXRγ; H2O, UVA/βC 3 μM)?
Its RXRγ fold induction is 0.67 fold.

What about the RXRγ fold induction (RXRγ; H2O, βC 0.5 μM) of the same molecule?
The RXRγ fold induction was 0.39 fold.

And the RXRγ fold induction (RXRγ; H2O, βC 1.5 μM)?
The RXRγ fold induction was 0.77 fold.

What about the RXRγ fold induction (RXRγ; H2O, βC 3 μM) of the same molecule?
Its RXRγ fold induction is 0.33 fold.

What about the “βC-9′,10′-oxygenase fold induction” value ([1]; D2O, UVA/βC 0.5 μM) of the same molecule?
Its value is 1.43 fold.

And the “βC-9′,10′-oxygenase fold induction” value ([1]; D2O, UVA/βC 1.5 μM)?
The value was 2.30 fold.

What about the “βC-9′,10′-oxygenase fold induction” value ([1]; D2O, UVA/βC 3 μM) of the same molecule?
Its value is 2.19 fold.

What about the “βC-9′,10′-oxygenase fold induction” value ([1]; D2O, βC 0.5 μM) of the same molecule?
Its value is 0.93 fold.

And the “βC-9′,10′-oxygenase fold induction” value ([1]; D2O, βC 1.5 μM)?
The value was 1.19 fold.

And the “βC-9′,10′-oxygenase fold induction” value ([1]; D2O, βC 3 μM)?
The value was 1.11 fold.

What about the “βC-9′,10′-oxygenase fold induction” value ([1]; H2O, UVA/βC 0.5 μM) of the same molecule?
The value was 0.75 fold.

And the “βC-9′,10′-oxygenase fold induction” value ([1]; H2O, UVA/βC 1.5 μM)?
Its value is 0.70 fold.

And the “βC-9′,10′-oxygenase fold induction” value ([1]; H2O, UVA/βC 3 μM)?
Its value is 0.99 fold.

And the “βC-9′,10′-oxygenase fold induction” value ([1]; H2O, βC 0.5 μM)?
Its value is 0.90 fold.

What about the “βC-9′,10′-oxygenase fold induction” value ([1]; H2O, βC 1.5 μM) of the same molecule?
The value was 0.85 fold.

And the “βC-9′,10′-oxygenase fold induction” value ([1]; H2O, βC 3 μM)?
The value was 0.76 fold.

What about the “β-carotene-9′,10′-oxygenase RNA level” value [1, 3] of the same molecule?
The value was “not significantly influenced”.

What about the “basal or UVA-regulated expression level of RXRα” value (RXRα) of the same molecule?
Its value is “no significant effect”.

What about the RXRα fold induction (RXRα; D2O, UVA/βC 0.5 μM) of the same molecule?
Its RXRα fold induction is 0.68 fold.

What about the RXRα fold induction (RXRα; D2O, UVA/βC 1.5 μM) of the same molecule?
The RXRα fold induction was 0.31 fold.

And the RXRα fold induction (RXRα; D2O, UVA/βC 3 μM)?
Its RXRα fold induction is 0.38 fold.

What about the RXRα fold induction (RXRα; D2O, βC 0.5 μM) of the same molecule?
Its RXRα fold induction is 1.25 fold.

And the RXRα fold induction (RXRα; D2O, βC 1.5 μM)?
Its RXRα fold induction is 0.82 fold.

And the RXRα fold induction (RXRα; D2O, βC 3 μM)?
Its RXRα fold induction is 1.06 fold.

And the RXRα fold induction (RXRα; H2O, UVA/βC 0.5 μM)?
Its RXRα fold induction is 0.96 fold.

And the RXRα fold induction (RXRα; H2O, UVA/βC 1.5 μM)?
The RXRα fold induction was 0.27 fold.

What about the RXRα fold induction (RXRα; H2O, UVA/βC 3 μM) of the same molecule?
The RXRα fold induction was 0.58 fold.

What about the RXRα fold induction (RXRα; H2O, βC 0.5 μM) of the same molecule?
Its RXRα fold induction is 0.89 fold.

And the RXRα fold induction (RXRα; H2O, βC 1.5 μM)?
Its RXRα fold induction is 0.98 fold.

And the RXRα fold induction (RXRα; H2O, βC 3 μM)?
The RXRα fold induction was 1.13 fold.

What about the “basal or UVA-regulated expression level of RARβ” value (RARβ) of the same molecule?
Its value is “no significant effect”.

And the RARβ fold induction (RARβ; D2O, UVA/βC 0.5 μM)?
Its RARβ fold induction is 2.49 fold.

What about the RARβ fold induction (RARβ; D2O, UVA/βC 1.5 μM) of the same molecule?
Its RARβ fold induction is 1.69 fold.

And the RARβ fold induction (RARβ; D2O, UVA/βC 3 μM)?
The RARβ fold induction was 2.35 fold.

What about the RARβ fold induction (RARβ; D2O, βC 0.5 μM) of the same molecule?
Its RARβ fold induction is 1.25 fold.

And the RARβ fold induction (RARβ; D2O, βC 1.5 μM)?
The RARβ fold induction was 2.46 fold.

What about the RARβ fold induction (RARβ; D2O, βC 3 μM) of the same molecule?
Its RARβ fold induction is 2.79 fold.

And the RARβ fold induction (RARβ; H2O, UVA/βC 0.5 μM)?
The RARβ fold induction was 0.44 fold.

And the RARβ fold induction (RARβ; H2O, UVA/βC 1.5 μM)?
Its RARβ fold induction is 0.90 fold.

And the RARβ fold induction (RARβ; H2O, UVA/βC 3 μM)?
Its RARβ fold induction is 0.86 fold.

What about the RARβ fold induction (RARβ; H2O, βC 0.5 μM) of the same molecule?
Its RARβ fold induction is 0.81 fold.

What about the RARβ fold induction (RARβ; H2O, βC 1.5 μM) of the same molecule?
The RARβ fold induction was 1.20 fold.

And the RARβ fold induction (RARβ; H2O, βC 3 μM)?
Its RARβ fold induction is 1.84 fold.

What about the “RARβ induction, dose-dependent” value (RARβ; predominantly in unirradiated cells) of the same molecule?
The value was “non-significantly induced”.

And the “basal or UVA-regulated expression level of RXRβ” value (RXRβ)?
The value was “no significant effect”.

What about the RXRβ fold induction (RXRβ; D2O, UVA/βC 0.5 μM) of the same molecule?
The RXRβ fold induction was 1.23 fold.

And the RXRβ fold induction (RXRβ; D2O, UVA/βC 1.5 μM)?
Its RXRβ fold induction is 1.09 fold.

What about the RXRβ fold induction (RXRβ; D2O, UVA/βC 3 μM) of the same molecule?
The RXRβ fold induction was 0.76 fold.

What about the RXRβ fold induction (RXRβ; D2O, βC 0.5 μM) of the same molecule?
The RXRβ fold induction was 1.32 fold.

What about the RXRβ fold induction (RXRβ; D2O, βC 1.5 μM) of the same molecule?
Its RXRβ fold induction is 1.17 fold.

And the RXRβ fold induction (RXRβ; D2O, βC 3 μM)?
Its RXRβ fold induction is 1.61 fold.

And the RXRβ fold induction (RXRβ; H2O, UVA/βC 0.5 μM)?
Its RXRβ fold induction is 0.93 fold.

And the RXRβ fold induction (RXRβ; H2O, UVA/βC 1.5 μM)?
The RXRβ fold induction was 0.71 fold.

And the RXRβ fold induction (RXRβ; H2O, UVA/βC 3 μM)?
Its RXRβ fold induction is 1.04 fold.

And the RXRβ fold induction (RXRβ; H2O, βC 0.5 μM)?
The RXRβ fold induction was 0.67 fold.

What about the RXRβ fold induction (RXRβ; H2O, βC 1.5 μM) of the same molecule?
The RXRβ fold induction was 0.99 fold.

And the RXRβ fold induction (RXRβ; H2O, βC 3 μM)?
Its RXRβ fold induction is 0.99 fold.

And the “βC-15,15′-oxygenase fold induction” value ([2]; D2O, UVA/βC 0.5 μM)?
The value was 1.08 fold.

And the “βC-15,15′-oxygenase fold induction” value ([2]; D2O, UVA/βC 1.5 μM)?
The value was 0.90 fold.

What about the “βC-15,15′-oxygenase fold induction” value ([2]; D2O, UVA/βC 3 μM) of the same molecule?
The value was 0.91 fold.

What about the “βC-15,15′-oxygenase fold induction” value ([2]; D2O, βC 0.5 μM) of the same molecule?
Its value is 1.19 fold.

And the “βC-15,15′-oxygenase fold induction” value ([2]; D2O, βC 1.5 μM)?
The value was 1.03 fold.

What about the “βC-15,15′-oxygenase fold induction” value ([2]; D2O, βC 3 μM) of the same molecule?
Its value is 0.43 fold.

What about the “βC-15,15′-oxygenase fold induction” value ([2]; H2O, UVA/βC 0.5 μM) of the same molecule?
The value was 0.60 fold.

And the “βC-15,15′-oxygenase fold induction” value ([2]; H2O, UVA/βC 1.5 μM)?
The value was 0.84 fold.

And the “βC-15,15′-oxygenase fold induction” value ([2]; H2O, UVA/βC 3 μM)?
The value was 0.91 fold.

And the “βC-15,15′-oxygenase fold induction” value ([2]; H2O, βC 0.5 μM)?
The value was 1.09 fold.

And the “βC-15,15′-oxygenase fold induction” value ([2]; H2O, βC 1.5 μM)?
The value was 1.19 fold.

What about the “βC-15,15′-oxygenase fold induction” value ([2]; H2O, βC 3 μM) of the same molecule?
Its value is 1.08 fold.

What about the “β-Carotene-15,15′-oxygenase RNA level” value [2, 3] of the same molecule?
The value was “not significantly influenced”.
